Data from patent publication US20090137499A1, “BENZYLPHENYL GLUCOPYRANOSIDE DERIVATIVE” (priority 2006, published 2009).

Target: T1, human SGLT1 (Homo sapiens, UniProt P13866)
T1 construct: expressed in transfected cells
T1 sequence (P13866 1-664): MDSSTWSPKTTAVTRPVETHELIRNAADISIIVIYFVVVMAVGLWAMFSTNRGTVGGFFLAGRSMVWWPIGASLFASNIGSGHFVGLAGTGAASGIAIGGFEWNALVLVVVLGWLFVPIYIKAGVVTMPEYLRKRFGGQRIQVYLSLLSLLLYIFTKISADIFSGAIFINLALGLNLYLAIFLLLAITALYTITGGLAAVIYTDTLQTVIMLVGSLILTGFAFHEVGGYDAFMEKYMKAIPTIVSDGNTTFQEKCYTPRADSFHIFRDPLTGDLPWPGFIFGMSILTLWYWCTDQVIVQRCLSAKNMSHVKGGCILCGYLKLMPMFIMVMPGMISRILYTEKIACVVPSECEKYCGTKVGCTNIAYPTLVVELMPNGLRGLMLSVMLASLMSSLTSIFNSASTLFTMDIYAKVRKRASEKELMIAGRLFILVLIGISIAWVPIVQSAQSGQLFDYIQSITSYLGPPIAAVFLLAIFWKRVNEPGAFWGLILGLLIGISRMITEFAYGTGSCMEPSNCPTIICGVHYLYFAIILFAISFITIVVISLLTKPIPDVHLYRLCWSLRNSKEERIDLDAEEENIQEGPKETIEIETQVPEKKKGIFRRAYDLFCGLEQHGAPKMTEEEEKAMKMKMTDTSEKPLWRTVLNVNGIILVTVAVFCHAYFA
Experiment: Determination of SGLT1 inhibiting activity using human SGLT1 expressing cell ([14C]-α-methyl-D-glucopyranoside uptake)
Type: cell-based
Settings: HEK-SGLT1 cells, 1 mM [14C]-α-methyl-D-glucopyranoside, 37° C., 30 min
Method: Determination of SGLT1 Inhibiting Activity Using Human SGLT1 Expressing Cell
1) Preparation of Vector Expressing Human SGLT1 cDNA in Animal Cell
Amplification was performed by PCR using human SGLT1 cDNA clone (Origene: Clone Number, TC119918; GenBank accession number, NM 000343) as a template. The sense oligonucleotide primer for PCR was 5′-[…]-3′ (Primer 1: SEQ ID NO: 1 in the sequence listing),
and the antisense oligonucleotide primer was 5′-[…]-3′ (Primer 2: SEQ ID NO: 2 in the sequence listing).
The PCR product was subjected to agarose electrophoresis, then a target DNA fragment was recovered from a single band corresponding to 2013 bases, digested with restriction enzymes HindIII and XhoI, and introduced into the HindIII/XhoI site of vector pCMV-Script (Stratagene) to obtain SGLT1 expressing plasmid pCMV-SGLT1. A HindIII/XhoI fragment was excised from pCMV-SGLT1 and introduced into the BamHI/XhoI site of pENTR1A (Gateway, Invitrogen) to prepare pENTR-SGLT1. Retrovirus vector pLPCX (Clontech) into which Gateway Vector Conversion System Cassette A (Invitrogen) was introduced was used as the destination plasmid to prepare SGLT1 expressing retrovirus vector pLPCX-SGLT1.
2) Establishment of Human SGLT1 Expressing Cell
The retrovirus pLPCX-SGLT1 obtained in 1) was transfected into integrin αvβ3 expressing HEK-293 cells and, the cells were treated with antibiotic G418 (brand name, Geneticin: Invitrogen) and puromycin (Clontech) to obtain HEK-SGLT1 cells stably expressing the target vector having resistance. The stably expressing cells were cultured and maintained in DMEM medium containing […] G418, […] puromycin, 3 mM KGT-1075, and 10% FBS.
3) Determination of SGLT1 Inhibiting Activity
HEK-SGLT1 cells were suspended at a density of 10^6 cells/mL in DMEM medium containing […] G418, 1 mg/ml puromycin, and 10% FBS, and 100 μL was seeded in each well of a type 1 collagen-coated 96-well culture plate (Corning). On the following day, the medium was replaced with a sugar uptake buffer (10 mM HEPES [pH 7.5], 5 mM Tris-HCl [pH 7.5], 140 mM NaCl, 2 mM KCl, 1 mM CaCl2, 1 mM MgCl2), and the cells were cultured with 1 mM [^14C]-α-methyl-D-glucopyranoside (0.1 mCi) and the test compound at 37° C. for 30 min and then washed 3 times with a washing buffer (10 mM HEPES [pH 7.5], 5 mM Tris-HCl [pH 7.5], 140 mM choline chloride, 2 mM KCl, 1 mM CaCl2, 1 mM MgCl2). 100 μL of liquid scintillation cocktail (brand name, Supermix: Perkin-Elmer) was added to each well of the 96-well plate and stirred for 10 min, and then radioactivity was determined with micro β (Perkin-Elmer), a type of liquid scintillation counter. The value as the sugar uptake activity was obtained by deducting the radioactivity in the presence of an excess amount of an SGLT1 inhibiting compound as the background from each measured value, the inhibition rate (%) was calculated from the control sugar uptake activity obtained without using a test compound and the sugar uptake activity obtained using a test compound having a predetermined the concentration, and concentrations of the test compound at which the sugar uptake activity was inhibited by 50% were assessed.

Row | IC50 | Compound
1 | 214 nM | CSc1ccc(Cc2ccc(CO)cc2O[C@@H]2O[C@H]([C@@H](C)O)[C@@H](O)[C@H](O)[C@H]2O)cc1 [Example 66, 5-Hydroxymethyl-2-(4-methylsulfanylbenzyl)phenyl 7-deoxy-D-glycero-β-D-gluco-heptopyranoside]
2 | 491 nM | CCc1ccc(Cc2ccc(CCO)cc2O[C@@H]2O[C@H]([C@@H](C)O)[C@@H](O)[C@H](O)[C@H]2O)cc1 [Example 67, 2-(4-Ethylbenzyl)-5-(2-hydroxyethyl)phenyl 7-deoxy-D-glycero-β-D-gluco-heptopyranoside]
3 | 123 nM | C[C@@H](O)[C@H]1O[C@@H](Oc2cc(CO)ccc2Cc2ccc(CCCO)cc2)[C@H](O)[C@@H](O)[C@@H]1O [Example 68, 5-Hydroxymethyl-2-[4-(3-hydroxypropyl)benzyl]phenyl 7-deoxy-D-glycero-β-D-gluco-heptopyranoside]
4 | 231 nM | COc1ccc(Cc2c(C)cc(C)cc2O[C@@H]2O[C@H]([C@@H](C)O)[C@@H](O)[C@H](O)[C@H]2O)cc1F [Example 69, 2-(3-Fluoro-4-methoxybenzyl)-3,5-dimethylphenyl 7-deoxy-D-glycero-β-D-gluco-heptopyranoside]
5 | 199 nM | Cc1cc(C)c(Cc2ccc(CCO)cc2)c(O[C@@H]2O[C@H]([C@@H](C)O)[C@@H](O)[C@H](O)[C@H]2O)c1 [Example 70, 2-[4-(2-Hydroxyethyl)benzyl]-3,5-dimethylphenyl 7-deoxy-D-glycero-β-D-gluco-heptopyranoside]
6 | 281 nM | CCCOc1ccc(Cc2c(F)cc(CO)cc2O[C@@H]2O[C@H]([C@@H](C)O)[C@@H](O)[C@H](O)[C@H]2O)cc1 [Example 74, 3-Fluoro-5-hydroxymethyl-2-(4-propoxybenzyl)phenyl 7-deoxy-D-glycero-β-D-gluco-heptopyranoside]
7 | 269 nM | CC(C)Oc1ccc(Cc2c(F)cc(CO)cc2O[C@@H]2O[C@H]([C@@H](C)O)[C@@H](O)[C@H](O)[C@H]2O)cc1 [Example 75, 3-Fluoro-5-hydroxymethyl-2-(4-isopropoxybenzyl)phenyl 7-deoxy-D-glycero-β-D-gluco-heptopyranoside]
8 | 252 nM | COc1ccc(Cc2c(C)cc(C)cc2O[C@@H]2O[C@H]([C@@H](C)O)[C@@H](O)[C@H](O)[C@H]2O)cc1 [Example 77, 3,5-Dimethyl-2-(4-methoxybenzyl)phenyl 7-deoxy-D-glycero-β-D-gluco-heptopyranoside]
9 | 234 nM | COc1ccc(Cc2ccc(CO)cc2O[C@@H]2O[C@H]([C@@H](C)O)[C@@H](O)[C@H](O)[C@H]2O)cc1F [Example 78, 2-(3-Fluoro-4-methoxybenzyl)-5-hydroxymethylphenyl 7-deoxy-D-glycero-β-D-gluco-heptopyranoside]
10 | 219 nM | COc1ccc(Cc2ccc(CO)cc2O[C@@H]2O[C@H]([C@@H](C)O)[C@@H](O)[C@H](O)[C@H]2O)c(F)c1 [Example 82, 2-(2-Fluoro-4-methoxybenzyl)-5-hydroxymethylphenyl 7-deoxy-D-glycero-β-D-gluco-heptopyranoside]
11 | 142 nM | COc1ccc(Cc2c(OC)cc(CO)cc2O[C@@H]2O[C@H]([C@@H](C)O)[C@@H](O)[C@H](O)[C@H]2O)cc1 [Example 83, 5-Hydroxymethyl-3-methoxy-2-(4-methoxybenzyl)phenyl 7-deoxy-D-glycero-β-D-gluco-heptopyranoside]
12 | 31 nM | COc1ccc(Cc2c(F)cc(CO)cc2O[C@@H]2O[C@H]([C@@H](C)O)[C@@H](O)[C@H](O)[C@H]2O)cc1 [Example 84, 3-Fluoro-5-hydroxymethyl-2-(4-methoxybenzyl)phenyl 7-deoxy-D-glycero-β-D-gluco-heptopyranoside]
13 | 51 nM | C[C@@H](O)[C@H]1O[C@@H](Oc2cc(CO)cc(F)c2Cc2ccc(C3CC3)cc2)[C@H](O)[C@@H](O)[C@@H]1O [Example 88, 2-(4-Cyclopropylbenzyl)-3-fluoro-5-hydroxymethylphenyl 7-deoxy-D-glycero-β-D-gluco-heptopyranoside]
14 | 81 nM | CCc1ccc(Cc2c(C)cc(CO)cc2O[C@@H]2O[C@H]([C@@H](C)O)[C@@H](O)[C@H](O)[C@H]2O)cc1 [Example 89, 2-(4-Ethylbenzyl)-5-hydroxymethyl-3-methylphenyl 7-deoxy-D-glycero-β-D-gluco-heptopyranoside]
15 | 430 nM | CCOc1ccc(Cc2ccc(CO)cc2O[C@@H]2O[C@H]([C@@H](C)O)[C@@H](O)[C@H](O)[C@H]2O)cc1 [Example 93, 2-(4-Ethoxybenzyl)-5-hydroxymethylphenyl 7-deoxy-D-glycero-β-D-gluco-heptapyranoside]
16 | 37 nM | COc1ccc(Cc2c(C)cc(CO)cc2O[C@@H]2O[C@H]([C@@H](C)O)[C@@H](O)[C@H](O)[C@H]2O)cc1 [Example 94, 5-Hydroxymethyl-2-(4-methoxybenzyl)-3-methylphenyl 7-deoxy-D-glycero-β-D-gluco-heptopyranoside]
17 | 82 nM | C[C@@H](O)[C@H]1O[C@@H](Oc2cc(CO)cc(Cl)c2Cc2ccc(OC3CC3)cc2)[C@H](O)[C@@H](O)[C@@H]1O [Example 95, 3-Chloro-2-(4-cyclopropoxybenzyl)-5-hydroxymethyl-phenyl 7-deoxy-D-glycero-β-D-gluco-heptopyranoside]
18 | 77 nM | Cc1cc(CO)cc(O[C@@H]2O[C@H]([C@@H](C)O)[C@@H](O)[C@H](O)[C@H]2O)c1Cc1ccc(OC2CC2)cc1 [Example 96, 2-(4-Cyclopropoxybenzyl)-5-hydroxymethyl-3-methyl-phenyl 7-deoxy-D-glycero-β-D-gluco-heptopyranoside]
19 | 52 nM | Cc1ccc(Cc2c(F)cc(CO)cc2O[C@@H]2O[C@H]([C@@H](C)O)[C@@H](O)[C@H](O)[C@H]2O)cc1 [Example 97, 3-Fluoro-5-hydroxymethyl-2-(4-methylbenzyl)phenyl 7-deoxy-D-glycero-β-D-gluco-heptopyranoside]
20 | 180 nM | Cc1ccc(Cc2ccc(CO)cc2O[C@@H]2O[C@H]([C@@H](C)O)[C@@H](O)[C@H](O)[C@H]2O)cc1 [Example 98, 5-Hydroxymethyl-2-(4-methylbenzyl)phenyl 7-deoxy-D-glycero-β-D-gluco-heptapyranoside]
21 | 168 nM | C=Cc1cc(CO)cc(O[C@@H]2O[C@H]([C@@H](C)O)[C@@H](O)[C@H](O)[C@H]2O)c1Cc1ccc(OC)cc1 [Example 101, 5-Hydroxymethyl-2-(4-methoxybenzyl)-3-vinyl-phenyl 7-deoxy-D-glycero-β-D-gluco-heptopyranoside]
